This is an account of results in ChEMBL document CHEMBL1926529, “Synthesis of novel benzofurocoumarin analogues and their anti-proliferative effect on human cancer cell lines” (2012).

Experiment [1] deals with TCC-SUP. Put plainly: Growth inhibition of human TCCSUP cells assessed as cell viability after 48 hrs by MTS assay. The format is functional. On the technique in general: Tetrazolium assays rely on reduction of a dye to a coloured formazan, in cell work by metabolically active cells.
In experiment [2] the test system is HeLa. Description: Growth inhibition of human HeLa cells assessed as cell viability at 0.5 uM after 48 hrs by MTS assay. The format is functional, cell-based.
The subject of experiment [3] is HeLa. Put plainly: Growth inhibition of human HeLa cells assessed as cell viability after 48 hrs by MTS assay. The experiment is classed as functional.
Experiment [4] has as its system MDA-MB-231. Put plainly: Growth inhibition of human MDA-MB-231 cells assessed as cell viability after 48 hrs by MTS assay. The experiment is classed as functional. The note with it: MDA-MB-231, 48 h.
For experiment [5], the system named is MDA-MB-231. Put plainly: Growth inhibition of human MDA-MB-231 cells assessed as cell viability at 0.5 uM after 48 hrs by MTS assay. The experiment is classed as functional, cell-based.
Experiment [6] concerns TCC-SUP. Description: Growth inhibition of human TCCSUP cells assessed as cell viability at 0.5 uM after 48 hrs by MTS assay. The format is functional, cell-based.

Calls of active or inactive are those of the source. No cut-off for these calls is given here.

As usually defined, the GI50 is the concentration giving 50% growth inhibition. On to `O=c1ccc2c(ccc3oc4ccccc4c32)o1`, for which the GI50 was 31 nM in the experiment on TCC-SUP [1], 5 nM with HeLa [3] and 467 nM in the experiment on MDA-MB-231 [4]. Besides, the “growth inhibition (GI)” value in the experiment on HeLa [2], in the experiment with MDA-MB-231 [5] and with TCC-SUP [6] was “Active” in each case.
For the molecule `O=C(O)c1cc2c(ccc3oc4ccccc4c32)oc1=O`, the GI50 worked out at 50 nM in the experiment on TCC-SUP [1], 3 nM with HeLa [3] and 97 nM in the experiment with MDA-MB-231 [4]. Besides, the “growth inhibition (GI)” value in the experiment with HeLa [2], in the experiment with MDA-MB-231 [5] and in the experiment with TCC-SUP [6] was “Active” in each case.
Turning to `CCOC(=O)C(CC(C)C)NC(=O)c1cc2c(ccc3oc4ccccc4c32)oc1=O` (stereo not given), the results for the GI50 with TCC-SUP [1], in the experiment on HeLa [3] and in the experiment on MDA-MB-231 [4] were 122 nM, 43 nM and 205 nM, respectively. Besides, the “growth inhibition (GI)” value in the experiment with HeLa [2], in the experiment with MDA-MB-231 [5] and with TCC-SUP [6] was “Active” throughout.
As for `CCOC(=O)c1cc2c(ccc3oc4ccccc4c32)oc1=O`, the figures for the GI50 with TCC-SUP [1], with HeLa [3] and in the experiment on MDA-MB-231 [4] were 12 nM, 2 nM and 83 nM, respectively. Also, the “growth inhibition (GI)” value with HeLa [2], in the experiment with MDA-MB-231 [5] and with TCC-SUP [6] was “Active” in each case.
In the case of `COC(=O)C(C)NC(=O)c1cc2c(ccc3oc4ccccc4c32)oc1=O` (stereo not given), the GI50 in the experiment on TCC-SUP [1] came to 159 nM; with HeLa [3], 53 nM; with MDA-MB-231 [4], 106 nM. The “growth inhibition (GI)” value with HeLa [2], with MDA-MB-231 [5] and with TCC-SUP [6] was “Active” throughout.
